The subject of data set [1] is E. coli BW25113. Nature of the data set: microbe, parasite or virus in culture. The format is cell-based, Escherichia coli. As to the method: (§1) All peptides were screened for antimicrobial activity against E. coli BW25113, E. coli ATCC25922, and E. coli W3110. A select group of the peptides was further tested against E. coli mcr-1, E. coli EQASmcr-1 (EQAS 2016 412016126), E. coli EQASmcr-2 (EQAS 2016 KP37), E. coli EQASmcr-3 (EQAS 2017 2013-SQ352), K. pneumoniae ATCC13883, P. aeruginosa ATCC27853, and A. baumannii ATCC17978. The antimicrobial assay was performed according to CLSI guidelines. Bacteria were plated out directly from their glycerol stocks on blood agar plates, incubated overnight at 37 °C, and then kept in the fridge. The blood agar plates were only used for 2 weeks and then replaced.
(§2) One colony from a blood agar plates was inoculated in Lysogeny Broth (LB) at 37 °C until a 0.5 optical density at 600 nm (OD600) was reached (compared to the sterility control of LB). The bacterial suspension was diluted in fresh LB to 2.0 × 10^6 CFU/mL. The serial dilutions were prepared in polypropylene microtiter plates: a stock of the test compounds was prepared with a 2x final concentration in LB. Moreover, 100 µL of the stock was added to the wells of the top row of which 50 µL was used for the serial dilution. The bottom row of each plate was used as the positive (50 µL of LB) and negative controls (100 µL of LB) (6 wells each). Furthermore, 50 µL of the 2.0 × 10^6 CFU/mL bacterial stock was added to each well except for the negative controls, adding up to a total volume of 100 µL per well. The plates were sealed with a breathable seal and incubated for 20 h at 37 °C and 600 rpm.
(§3) Two 96-well plates were required per compound. A serial dilution of the compound was performed on two plates from row A–G using with LB as medium. Row H was filled with 25 µL medium. On a separate plate a negative control (8 wells, 100 μL medium) was prepared. For all concentrations of antibiotic a specific stock was prepared. 25 µL medium was added to the 0 µg/mL antibiotic columns (plate I, column 1–3). Of each antibiotic stock 25 µL was added to three columns to obtain triplicates for every condition. Both plates contained 50 µL in each well to which 50 µL bacterial stock was added (see the protocol of the MIC assays) and the plates were sealed. After incubation for 20 h at 37 °C while shaking, the breathable seals were removed and the density of the bacterial suspensions measured at 600 nm (OD600) using a Tecan Spark plate reader. The OD600 values were transformed to a 2D gradient with the negative control as minimum and the positive control (wells G1, G2, and G3) as maximum in excel. The FICi was calculated using Equation (1) with a FICi ≤ 0.5 indicating synergy. FICi = (MSCa/MICa) + (MSCb/MICb),(1)
(§4) Calculation of the FICi: MSCa = concentration of the […] in combination with the antibiotic that results in the lowest FICi. MICa = MIC of the antibiotic without synergist (row G). MSCb = concentration of the synergist in combination with the antibiotic that results in the lowest FICi. MICb = MIC of the synergist itself (Column 1–3, plate I).

The subject of a further data set is K. pneumoniae ATCC13883. Nature of the data set: Checkerboard assay with rifampicin. The format is cell-based, Klebsiella pneumoniae. As to the method:
as §1, §2, §3, §4

Another data set concerns P. aeruginosa ATCC27853. In words: Checkerboard assay with rifampicin. The data set is classed as cell-based, Pseudomonas aeruginosa. As to the method:
as §1, §2, §3, §4

The next data set has as its system E. coli ATCC25922. The data set is classed as cell-based, Escherichia coli. The note with it: rifampicin without synergist; E. coli ATCC25922. On the procedure: as §1, §2, §3, §4
Another data set relates to E. coli mcr-1. The format is cell-based, Escherichia coli. To be noted: rifampicin without synergist; E. coli mcr-1. On the procedure: as §1, §2, §3, §4
The next data set concerns A. baumannii ATCC17978. Nature of the data set: microbe, parasite or virus in culture. The data set is classed as cell-based, Acinetobacter baumannii. As to the method:
as §1, §2, §3, §4

Data set [2] has as its system E. coli BW25113. The format is cell-based, Escherichia coli. To be noted: for MICpep: synergist alone, E. coli BW25113, from checkerboard with rifampicin; for MSCpep: synergist concentration in the combination with rifampicin giving the lowest FICi. As to the method:
as §1, §2, §3, §4

The test system of data set [3] is E. coli BW25113. In words: Checkerboard assay with erythromycin. To be noted: for MSCery: erythromycin concentration in the combination with the synergist giving the lowest FICi, E. coli BW25113; for MIC of the peptide (MICpep): synergist alone, from checkerboard with erythromycin; for MIC of the peptide (MICpep) / MSCpeptide, minimum synergistic concentration: E. coli BW25113, LB, 20 h 37 °C; for MSCpeptide, minimum synergistic concentration: synergist concentration in the combination with erythromycin giving the lowest FICi, OD600; for FICi: with erythromycin vs E. coli BW25113, synergy defined as FICi ≤ 0.5. The format is cell-based, Escherichia coli. As to the method: as §1, §2, §3, §4

Data set [4] concerns defibrinated sheep blood (red blood cells). In words: Hemolysis assay. The data set is classed as cell-based. To be noted: 200 µg/mL compound, 20 h incubation at 37 °C with defibrinated sheep blood, PBS 0.002% Tween20, absorbance 415 nm, relative to 0.1% Triton X-100; n=3 technical replicates. On the procedure: Defibrinated sheep blood (Thermo Fisher Scientific) and a phosphate-buffered saline (PBS) buffer containing 0.002% Tween20 were used in this assay. The red blood cells were washed with buffer followed by centrifugation (400 g for 15 min at 4 °C). The red blood cells were then normalized to obtain a positive control read-out around 2.5 at 415 nm to stay in the linear range with the maximum sensitivity. A serial dilution of the compounds (200–1.56 µg/mL, 75 µL) was prepared in a 96-well plate. Each plate contained a positive control (0.1% Triton X-100 final concentration, 75 µL) and the negative control (buffer, 75 µL). After addition of normalized blood cells (75 µL), the plates were incubated for 20 h at 37 °C at 500 rpm. The plates were centrifuged (800× g for 5 min at room temperature). For the next step flat-bottom polystyrene plates were prepared with 100 µL buffer in each well. Aliquots of 25 µL supernatant from the centrifuged plates were then transferred to their respective wells in the flat-bottom plate. Absorbance values where measured at 415 nm and corrected for background (negative control) and transformed to a percentage hemolysis relative to the positive control.

Where “and” joins values, the source holds several entries; their conditions need not be identical. Equal values may be shown once. Read-outs that look alike come from different tables or passages of the source. Peptide text beside a SMILES is read from it.

These results are taken from paper PMC8037310, “Thrombin-Derived Peptides Potentiate the Activity of Gram-Positive-Specific Antibiotics against Gram-Negative Bacteria” (Molecules, 2021).

As to `CN[C@H](CC(C)C)C(=O)N[C@H]1C(=O)N[C@@H](CC(N)=O)C(=O)N[C@H]2C(=O)N[C@H]3C(=O)N[C@H](C(=O)N[C@H](C(=O)O)c4cc(O)cc(O)c4-c4cc3ccc4O)[C@H](O)c3ccc(c(Cl)c3)Oc3cc2cc(c3O[C@@H]2O[C@H](CO)[C@@H](O)[C@H](O)[C@H]2O[C@H]2C[C@](C)(N)[C@H](O)[C@H](C)O2)Oc2ccc(cc2Cl)[C@H]1O` [vancomycin, reference compound], in the data set on E. coli BW25113 [1] (Escherichia coli, BW25113, read-out: MIC of vancomycin (MICvanco)), the MIC is above 200 µg/mL. In the data set with E. coli BW25113 [1] (antibiotic without synergist, E. coli BW25113), the “MIC of vancomycin (MICvanco)” value was above 200 µg/mL.
`CO[C@H]1/C=C/O[C@@]2(C)Oc3c(C)c(O)c4c(O)c(c(/C=N/N5CCN(C)CC5)c(O)c4c3C2=O)NC(=O)/C(C)=C\C=C\[C@H](C)[C@H](O)[C@@H](C)[C@@H](O)[C@@H](C)[C@H](OC(C)=O)[C@@H]1C` [rifampicin, reference compound]: the MIC stood at 32 µg/mL with K. pneumoniae ATCC13883 (Klebsiella pneumoniae, ATCC13883, read-out: MIC of rifampicin (MICrif)); 16 µg/mL in the data set on P. aeruginosa ATCC27853 (Pseudomonas aeruginosa, ATCC27853, read-out: MIC of rifampicin (MICrif)); 2 µg/mL in the data set on A. baumannii ATCC17978 (Acinetobacter baumannii, ATCC17978, read-out: MIC of rifampicin (MICrif)). The “MIC of rifampicin (MICrif)” value with K. pneumoniae ATCC13883 (rifampicin without synergist, K. pneumoniae ATCC13883) is on record as 32 µg/mL; in the data set with P. aeruginosa ATCC27853 (rifampicin without synergist, P. aeruginosa ATCC27853) it was 16 µg/mL; in the data set on A. baumannii ATCC17978 (rifampicin without synergist, A. baumannii ATCC17978) it was 2 µg/mL. For the same molecule, the MICrif is 4 µg/mL in the data set with E. coli ATCC25922 and 12 µg/mL in the data set with E. coli mcr-1.
With `CC[C@H](C)[C@H](NC(=O)[C@@H](NC(=O)[C@H](CCCCN)NC(=O)[C@H](CCC(N)=O)NC(=O)[C@@H](NC(=O)[C@H](Cc1c[nH]c2ccccc12)NC(=O)[C@H](CCCCN)NC(=O)[C@H](CCCCN)NC(=O)[C@H](C)NC(=O)[C@H](CCCNC(=N)N)NC(=O)[C@H](Cc1ccccc1)NC(=O)[C@@H](N)C(C)C)[C@@H](C)CC)C(C)C)C(N)=O` [compound 11] (H-VFRAKKWIQKVI-NH2), the MSCrif in the data set on E. coli BW25113 [2] (rifampicin concentration in the combination giving the lowest FICi, E. coli BW25113) was 0.25 µg/mL. In addition, the MICpep with E. coli BW25113 [2] was determined as 25 µg/mL. Moreover, the MSCpep in the data set with E. coli BW25113 [2] (E. coli BW25113) was 1.563 µg/mL. For the same molecule, in the data set with E. coli BW25113 [3], the MSCery stood at 12.5 µg/mL; the “MIC of the peptide (MICpep)” value was 200 µg/mL; the “MSCpeptide, minimum synergistic concentration” value is recorded as 25 µg/mL. Also, the Hemolysis in [4] was 1.1% and 1%.
In the case of `CC[C@H](C)[C@H](NC(=O)[C@@H](NC(=O)[C@H](CCCCN)NC(=O)[C@H](CCC(N)=O)NC(=O)[C@@H](NC(=O)[C@H](Cc1c[nH]c2ccccc12)NC(=O)[C@H](CCCCN)NC(=O)[C@H](C)NC(=O)[C@H](CC(C)C)NC(=O)[C@H](CCCNC(=N)N)NC(=O)[C@H](Cc1ccccc1)NC(=O)[C@@H](N)C(C)C)[C@@H](C)CC)C(C)C)C(N)=O` [compound 12] (H-VFRLAKWIQKVI-NH2), the MICpep in the data set on E. coli BW25113 [2] came out at 25 µg/mL. The MSCpep in the data set on E. coli BW25113 [2] (E. coli BW25113) was determined as 12.5 µg/mL. Further, the FICi in the data set with E. coli BW25113 [2] (with rifampicin vs E. coli BW25113, synergy defined as FICi ≤ 0.5) is recorded as above 0.5. Also, in the data set on E. coli BW25113 [3], the MSCery came to 1.563 µg/mL; the “MIC of the peptide (MICpep)” value is on record as 25 µg/mL; the “MSCpeptide, minimum synergistic concentration” value is reported as 12.5 µg/mL; the FICi is reported as above 0.5. The Hemolysis in [4] is 30.2% and 30%.
As to `CC[C@H](C)[C@H](NC(=O)[C@@H](NC(=O)[C@H](CCCCN)NC(=O)[C@H](CCC(N)=O)NC(=O)[C@@H](NC(=O)[C@H](Cc1c[nH]c2ccccc12)NC(=O)[C@H](CCCCN)NC(=O)[C@H](CCCCN)NC(=O)[C@H](CC(C)C)NC(=O)[C@H](CCCNC(=N)N)NC(=O)[C@H](C)NC(=O)[C@@H](N)C(C)C)[C@@H](C)CC)C(C)C)C(N)=O` [peptide 9] (H-VARLKKWIQKVI-NH2), the FICi in the data set on E. coli BW25113 [2] (BW25113, 20 h) came out at 0.1406. In addition, the MICpep in the data set with E. coli BW25113 [2] is 200 µg/mL. The MSCpep with E. coli BW25113 [2] (E. coli BW25113) came out at 25 µg/mL. Besides, in the data set on E. coli BW25113 [3], the MSCery came out at 12.5 µg/mL; the “MIC of the peptide (MICpep)” value is recorded as 50 µg/mL; the “MSCpeptide, minimum synergistic concentration” value is recorded as 3.125 µg/mL; the FICi is reported as 0.1250. Further, the Hemolysis in [4] was 0.1% and 0%.
